These results are taken from article PMC11625470 (Nature chemical biology, 2024).

Read-outs that look alike come from different tables or passages of the source.

Series [1] deals with T1, human concentrative nucleoside transporter 3 (hCNT3) (Homo sapiens, UniProt Q9HAS3).
T1 sequence (Q9HAS3 1-691): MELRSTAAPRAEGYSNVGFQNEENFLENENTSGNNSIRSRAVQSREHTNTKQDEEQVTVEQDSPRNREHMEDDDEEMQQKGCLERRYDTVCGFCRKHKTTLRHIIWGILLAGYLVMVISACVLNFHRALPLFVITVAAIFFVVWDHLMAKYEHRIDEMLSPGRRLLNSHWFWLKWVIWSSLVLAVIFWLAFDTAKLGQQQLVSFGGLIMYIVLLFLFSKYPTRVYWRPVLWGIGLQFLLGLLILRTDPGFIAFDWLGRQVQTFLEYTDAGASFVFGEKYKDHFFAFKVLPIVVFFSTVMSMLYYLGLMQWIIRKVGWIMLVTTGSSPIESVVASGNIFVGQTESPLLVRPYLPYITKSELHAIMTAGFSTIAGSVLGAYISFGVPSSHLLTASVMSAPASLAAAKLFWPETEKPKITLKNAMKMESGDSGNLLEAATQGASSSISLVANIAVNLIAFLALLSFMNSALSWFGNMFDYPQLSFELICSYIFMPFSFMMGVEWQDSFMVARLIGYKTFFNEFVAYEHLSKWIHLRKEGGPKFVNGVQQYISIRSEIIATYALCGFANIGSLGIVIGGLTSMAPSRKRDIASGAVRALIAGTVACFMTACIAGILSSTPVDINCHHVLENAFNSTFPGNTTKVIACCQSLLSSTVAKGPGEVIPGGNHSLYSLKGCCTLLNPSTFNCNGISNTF
In words: cold competition of [3H]-ribavirin uptake in oocytes. Type of series: cell-based.

Series [2] addresses T1, human concentrative nucleoside transporter 3 (hCNT3). The description is as above. Type of series: cell-based. This is another data set of the same source.
The target is the same in series [3]. The description is as above. Type of series: cell-based. This is another data set of the same source.
Series [4] concerns the target T2, bovine CNT3 (bCNT3) (Bos taurus, UniProt F1MGR1).
T2 sequence (F1MGR1 1-699): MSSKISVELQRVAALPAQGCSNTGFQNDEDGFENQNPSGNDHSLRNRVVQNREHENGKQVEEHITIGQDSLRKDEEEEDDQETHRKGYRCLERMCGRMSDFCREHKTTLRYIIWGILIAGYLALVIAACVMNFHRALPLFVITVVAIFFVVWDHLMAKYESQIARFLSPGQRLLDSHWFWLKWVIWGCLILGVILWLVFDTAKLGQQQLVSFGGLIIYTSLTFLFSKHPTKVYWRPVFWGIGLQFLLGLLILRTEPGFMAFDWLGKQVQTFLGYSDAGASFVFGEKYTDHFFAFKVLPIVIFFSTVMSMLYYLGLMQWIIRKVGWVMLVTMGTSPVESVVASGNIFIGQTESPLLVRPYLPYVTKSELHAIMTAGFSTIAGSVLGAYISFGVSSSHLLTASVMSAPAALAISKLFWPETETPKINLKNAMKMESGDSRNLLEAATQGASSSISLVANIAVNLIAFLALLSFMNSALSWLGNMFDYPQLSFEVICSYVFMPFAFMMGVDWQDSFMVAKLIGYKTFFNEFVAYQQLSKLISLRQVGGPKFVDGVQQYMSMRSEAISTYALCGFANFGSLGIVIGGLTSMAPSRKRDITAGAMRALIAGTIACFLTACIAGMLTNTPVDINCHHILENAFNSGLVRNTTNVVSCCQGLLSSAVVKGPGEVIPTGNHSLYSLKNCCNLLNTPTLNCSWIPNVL
The series can be described thus: cryo-EM structure. Type of series: binding.

Series [5] concerns the target T2, bovine CNT3 (bCNT3). The series can be described thus: cryo-EM structure. Type of series: binding. The source holds these as a separate data set.
The series “cryo-EM structure” deals with the molecule itself. The series can be described thus: cryo-EM structure.

`N#C[C@@]1(c2ccc3c(N)ncnn23)O[C@H](CO)[C@@H](O)[C@H]1O` [GS4, GS-441524]: the IC50 – broadly, the concentration needed to halve the response being measured – in series [1] was about 400 µM. Turning to `CC(C)C(=O)OC[C@H]1O[C@@H](n2ccc(NO)nc2=O)[C@H](O)[C@@H]1O` [MPV, molnupiravir], the IC50 in series [2] is about 54 µM. In series [3], `O=c1nc(NO)ccn1[C@@H]1O[C@H](CO)[C@@H](O)[C@H]1O` [NHC, N^4-hydroxycytidine] gave an IC50 of about 13 µM. Moreover, the “cryo-EM structure (2.74 Å), inward-facing state” value on bovine CNT3 (bCNT3) [4] is recorded as “This substituent interacts with S380 in the bCNT3-NHC structure”. Regarding `C[C@@]1(F)[C@H](O)[C@@H](CO)O[C@H]1n1ccc(=O)[nH]c1=O` [PSI-6206], on bovine CNT3 (bCNT3) [5], the “cryo-EM structure (2.69 Å), inward-facing state” value is “The quality of the maps enabled unambiguous modeling of nucleoside drugs for NHC, PSI-6206, and ribavirin”.

B1: Bos taurus concentrative nucleoside transporter 3 (CNT3) (natural protein, UniProt F1MGR1 1-699, looked up)
chain: MSSKISVELQRVAALPAQGCSNTGFQNDEDGFENQNPSGNDHSLRNRVVQNREHENGKQVEEHITIGQDSLRKDEEEEDDQETHRKGYRCLERMCGRMSDFCREHKTTLRYIIWGILIAGYLALVIAACVMNFHRALPLFVITVVAIFFVVWDHLMAKYESQIARFLSPGQRLLDSHWFWLKWVIWGCLILGVILWLVFDTAKLGQQQLVSFGGLIIYTSLTFLFSKHPTKVYWRPVFWGIGLQFLLGLLILRTEPGFMAFDWLGKQVQTFLGYSDAGASFVFGEKYTDHFFAFKVLPIVIFFSTVMSMLYYLGLMQWIIRKVGWVMLVTMGTSPVESVVASGNIFIGQTESPLLVRPYLPYVTKSELHAIMTAGFSTIAGSVLGAYISFGVSSSHLLTASVMSAPAALAISKLFWPETETPKINLKNAMKMESGDSRNLLEAATQGASSSISLVANIAVNLIAFLALLSFMNSALSWLGNMFDYPQLSFEVICSYVFMPFAFMMGVDWQDSFMVAKLIGYKTFFNEFVAYQQLSKLISLRQVGGPKFVDGVQQYMSMRSEAISTYALCGFANFGSLGIVIGGLTSMAPSRKRDITAGAMRALIAGTIACFLTACIAGMLTNTPVDINCHHILENAFNSGLVRNTTNVVSCCQGLLSSAVVKGPGEVIPTGNHSLYSLKNCCNLLNTPTLNCSWIPNVL
With B1, the stoichiometry N (as a rule, the number of molecules, sites or subunits per partner or assembly) in “cryo-EM structure” was found to be 3.
